# Assay results from ChEMBL document CHEMBL4823315 (Bioorg Med Chem Lett, 2021).
# pIC50: −log10 of the molar value.
# Legend:
# [1] = Inhibition of p70S6K (unknown origin); design: species or system Homo sapiens
# [2] = biological target: Serine/threonine-protein kinase AKT (Homo sapiens, UniProt P31751+Q9Y243+P31749); assay: Inhibition of Akt (unknown origin); type: protein assay
# [3] = Inhibition of Akt/p70S6K in human MDA-MB-436 cells assessed as inhibition of S6 phosphorylation; type: cell-based
# [4] = biological target: hERG (KCNH2) (Homo sapiens, UniProt Q12809); assay: Inhibition of human ERG at 10 uM by patch clamp assay
# [5] = biological target: Cytochrome P450 3A4 (Homo sapiens, UniProt P08684); assay: Inhibition of CYP3A4 (unknown origin); type: ADME
# [6] = biological target: T1, Cytochrome P450 1A2 (Homo sapiens, UniProt P05177); assay: Inhibition of CYP1A2 (unknown origin); type: ADME
# T1 sequence (P05177 whole entry): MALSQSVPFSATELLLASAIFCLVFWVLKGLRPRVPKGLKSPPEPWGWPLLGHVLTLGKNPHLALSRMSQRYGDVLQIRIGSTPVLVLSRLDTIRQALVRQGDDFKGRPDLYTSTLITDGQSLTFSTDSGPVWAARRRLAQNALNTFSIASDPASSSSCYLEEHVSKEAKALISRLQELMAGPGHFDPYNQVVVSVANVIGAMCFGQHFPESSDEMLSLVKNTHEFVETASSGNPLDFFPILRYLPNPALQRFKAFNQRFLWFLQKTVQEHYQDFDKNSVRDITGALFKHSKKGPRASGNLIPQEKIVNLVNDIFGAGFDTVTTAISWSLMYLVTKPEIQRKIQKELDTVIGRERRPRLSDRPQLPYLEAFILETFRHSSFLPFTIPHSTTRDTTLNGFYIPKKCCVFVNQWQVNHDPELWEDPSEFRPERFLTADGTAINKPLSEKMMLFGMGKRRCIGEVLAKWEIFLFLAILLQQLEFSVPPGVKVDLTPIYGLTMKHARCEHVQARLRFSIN
# [7] = Apparent permeability across apical to basal side in human Caco-2 cells; type: ADME, cell-based
# [8] = biological target: Voltage-gated inwardly rectifying potassium channel KCNH2 (Homo sapiens, UniProt Q12809); assay: Inhibition of human ERG by patch clamp assay
# [9] = Protein binding in human plasma assessed as unbound fraction; type: ADME, cell-free
# [10] = Protein binding in mouse plasma assessed as unbound fraction; type: ADME, cell-free
# [11] = biological target: T2, Cytochrome P450 2B6 (Homo sapiens, UniProt P20813); assay: Inhibition of CYP2B6 (unknown origin); type: ADME
# T2 sequence (P20813 whole entry): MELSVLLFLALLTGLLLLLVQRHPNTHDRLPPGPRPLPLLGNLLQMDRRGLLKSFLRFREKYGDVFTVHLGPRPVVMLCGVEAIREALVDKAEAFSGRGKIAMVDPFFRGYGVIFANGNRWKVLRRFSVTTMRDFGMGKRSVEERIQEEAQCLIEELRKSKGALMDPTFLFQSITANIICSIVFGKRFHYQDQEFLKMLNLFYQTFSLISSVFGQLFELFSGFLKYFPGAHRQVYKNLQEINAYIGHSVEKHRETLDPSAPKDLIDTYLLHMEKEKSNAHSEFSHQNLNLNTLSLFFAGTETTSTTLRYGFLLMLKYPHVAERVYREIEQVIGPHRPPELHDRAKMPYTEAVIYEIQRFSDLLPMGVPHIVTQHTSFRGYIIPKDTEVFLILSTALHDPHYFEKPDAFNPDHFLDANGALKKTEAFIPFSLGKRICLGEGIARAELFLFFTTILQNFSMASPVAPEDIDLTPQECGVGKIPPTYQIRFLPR
# [12] = biological target: T3, Cytochrome P450 2C8 (Homo sapiens, UniProt P10632); assay: Inhibition of CYP2C8 (unknown origin); type: ADME
# T3 sequence (P10632 whole entry): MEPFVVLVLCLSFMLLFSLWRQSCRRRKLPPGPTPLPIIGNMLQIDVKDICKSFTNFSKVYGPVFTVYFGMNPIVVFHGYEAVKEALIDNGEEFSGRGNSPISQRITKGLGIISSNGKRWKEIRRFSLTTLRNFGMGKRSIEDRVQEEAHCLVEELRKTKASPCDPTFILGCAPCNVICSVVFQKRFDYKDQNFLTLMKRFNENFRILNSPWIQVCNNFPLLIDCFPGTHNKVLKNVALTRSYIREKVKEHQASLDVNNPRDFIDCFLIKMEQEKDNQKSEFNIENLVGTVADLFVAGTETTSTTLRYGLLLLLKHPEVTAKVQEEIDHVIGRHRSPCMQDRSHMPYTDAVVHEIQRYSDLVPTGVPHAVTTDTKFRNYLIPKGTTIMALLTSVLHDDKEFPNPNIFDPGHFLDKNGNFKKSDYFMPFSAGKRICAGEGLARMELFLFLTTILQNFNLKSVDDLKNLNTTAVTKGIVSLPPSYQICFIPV
# [13] = biological target: Cytochrome P450 2C9 (Homo sapiens, UniProt P11712); assay: Inhibition of CYP2C9 (unknown origin); type: ADME
# [14] = biological target: Cytochrome P450 2C19 (Homo sapiens, UniProt P33261); assay: Inhibition of CYP2C19 (unknown origin); type: ADME
# [15] = biological target: Cytochrome P450 2D6 (Homo sapiens, UniProt P10635); assay: Inhibition of CYP2D6 (unknown origin); type: ADME
# [16] = Intrinsic clearance in human liver microsomes; type: ADME, Microsome; details: read-out: CLH
# [17] = Intrinsic clearance in mouse liver microsomes; type: ADME, Microsome; details: read-out: CLH
# [18] = Efflux ratio of apparent permeability in human Caco-2 cells; type: ADME, cell-based
# [19] = Thermodynamic solubility of the compound at pH 7.4; type: physicochemical; details: buffer, read-out: Therm_solubility
# [20] = Thermodynamic solubility of the compound at pH 1.2; type: physicochemical; details: buffer, read-out: Therm_solubility
# [21] = AUC in CD-1 mouse at 0.5 mg/kg, po; type: ADME, organism-based; design: dose 0.5 mg/kg; details: in vivo
# [22] = AUC in CD-1 mouse at 0.2 mg/kg, iv; type: ADME, organism-based; design: dose 0.2 mg/kg; details: in vivo
# [23] = Cmax in CD-1 mouse at 0.5 mg/kg, po; type: ADME, organism-based; design: route oral, dose 0.5 mg/kg; details: in vivo
# [24] = Cmax in CD-1 mouse at 0.2 mg/kg, iv; type: ADME, organism-based; design: route intravenous, dose 0.2 mg/kg; details: in vivo
# [25] = Half life in CD-1 mouse at 0.5 mg/kg, po or 0.2 mg/kg, iv; type: ADME, organism-based; details: in vivo
# [26] = Clearance in CD-1 mouse at 0.5 mg/kg, po or 0.2 mg/kg, iv; type: ADME, organism-based; details: in vivo
# [27] = Volume of distribution in CD-1 mouse at 0.5 mg/kg, po or 0.2 […], iv; type: ADME, organism-based; details: in vivo
# [28] = Oral bioavailability in CD-1 mouse at 0.5 mg/kg; type: ADME, organism-based; details: in vivo
# Sequence of Voltage-gated inwardly rectifying potassium channel KCNH2 (Q12809 whole entry): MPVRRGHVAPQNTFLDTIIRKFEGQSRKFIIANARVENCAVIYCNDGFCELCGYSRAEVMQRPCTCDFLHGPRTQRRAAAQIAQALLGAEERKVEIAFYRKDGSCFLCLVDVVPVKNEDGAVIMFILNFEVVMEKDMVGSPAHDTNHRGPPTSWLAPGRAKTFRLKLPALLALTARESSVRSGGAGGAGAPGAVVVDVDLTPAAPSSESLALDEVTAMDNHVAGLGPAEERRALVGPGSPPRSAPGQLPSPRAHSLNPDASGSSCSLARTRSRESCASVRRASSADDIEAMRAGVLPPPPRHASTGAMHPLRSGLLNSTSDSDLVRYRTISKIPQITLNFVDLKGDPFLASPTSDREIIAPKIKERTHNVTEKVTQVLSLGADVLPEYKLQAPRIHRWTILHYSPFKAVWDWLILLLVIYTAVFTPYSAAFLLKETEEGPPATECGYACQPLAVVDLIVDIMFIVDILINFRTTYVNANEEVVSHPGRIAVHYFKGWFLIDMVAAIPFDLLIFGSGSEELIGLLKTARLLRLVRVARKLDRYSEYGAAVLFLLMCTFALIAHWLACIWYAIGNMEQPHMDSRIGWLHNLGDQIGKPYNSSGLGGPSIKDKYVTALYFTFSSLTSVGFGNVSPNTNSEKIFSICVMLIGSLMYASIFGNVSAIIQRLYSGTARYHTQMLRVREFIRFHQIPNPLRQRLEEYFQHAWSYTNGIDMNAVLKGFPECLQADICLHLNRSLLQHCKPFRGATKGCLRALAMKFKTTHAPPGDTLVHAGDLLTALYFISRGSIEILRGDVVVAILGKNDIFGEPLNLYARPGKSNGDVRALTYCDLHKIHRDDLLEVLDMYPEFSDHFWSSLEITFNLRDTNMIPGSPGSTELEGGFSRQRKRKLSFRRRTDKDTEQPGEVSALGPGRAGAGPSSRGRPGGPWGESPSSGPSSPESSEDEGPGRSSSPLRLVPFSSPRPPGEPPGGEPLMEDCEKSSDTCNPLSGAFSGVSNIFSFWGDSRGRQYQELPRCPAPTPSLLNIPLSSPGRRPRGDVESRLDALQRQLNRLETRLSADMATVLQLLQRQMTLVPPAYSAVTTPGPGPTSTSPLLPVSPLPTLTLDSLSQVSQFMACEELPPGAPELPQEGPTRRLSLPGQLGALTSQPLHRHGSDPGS
# Sequence of Cytochrome P450 2C19 (P33261 whole entry): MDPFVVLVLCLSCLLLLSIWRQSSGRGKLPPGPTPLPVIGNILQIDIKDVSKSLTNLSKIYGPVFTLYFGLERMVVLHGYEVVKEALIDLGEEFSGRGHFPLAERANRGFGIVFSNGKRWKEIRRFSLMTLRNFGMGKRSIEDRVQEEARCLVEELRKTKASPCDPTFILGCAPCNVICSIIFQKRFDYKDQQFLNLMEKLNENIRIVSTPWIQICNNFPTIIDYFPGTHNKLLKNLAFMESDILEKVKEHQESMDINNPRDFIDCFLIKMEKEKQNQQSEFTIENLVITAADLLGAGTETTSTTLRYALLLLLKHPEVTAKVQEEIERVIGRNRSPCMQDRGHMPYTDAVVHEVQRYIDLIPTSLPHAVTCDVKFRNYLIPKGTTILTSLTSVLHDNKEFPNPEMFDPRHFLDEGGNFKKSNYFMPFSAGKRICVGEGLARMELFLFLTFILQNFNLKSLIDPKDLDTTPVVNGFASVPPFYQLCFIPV
# Sequence of Cytochrome P450 2C9 (P11712 whole entry): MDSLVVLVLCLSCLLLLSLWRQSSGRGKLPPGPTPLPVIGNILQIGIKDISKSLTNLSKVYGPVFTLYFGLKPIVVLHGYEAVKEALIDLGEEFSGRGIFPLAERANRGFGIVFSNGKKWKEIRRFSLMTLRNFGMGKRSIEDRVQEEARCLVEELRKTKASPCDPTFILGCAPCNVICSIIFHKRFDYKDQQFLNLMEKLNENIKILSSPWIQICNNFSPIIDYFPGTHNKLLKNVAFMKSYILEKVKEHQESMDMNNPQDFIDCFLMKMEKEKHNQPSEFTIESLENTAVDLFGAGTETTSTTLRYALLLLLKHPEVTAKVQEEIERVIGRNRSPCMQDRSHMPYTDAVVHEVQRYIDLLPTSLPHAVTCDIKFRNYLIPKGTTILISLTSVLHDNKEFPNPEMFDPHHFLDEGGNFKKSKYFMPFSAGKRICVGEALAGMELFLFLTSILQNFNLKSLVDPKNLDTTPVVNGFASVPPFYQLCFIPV
# Sequence of Cytochrome P450 2D6 (P10635 whole entry): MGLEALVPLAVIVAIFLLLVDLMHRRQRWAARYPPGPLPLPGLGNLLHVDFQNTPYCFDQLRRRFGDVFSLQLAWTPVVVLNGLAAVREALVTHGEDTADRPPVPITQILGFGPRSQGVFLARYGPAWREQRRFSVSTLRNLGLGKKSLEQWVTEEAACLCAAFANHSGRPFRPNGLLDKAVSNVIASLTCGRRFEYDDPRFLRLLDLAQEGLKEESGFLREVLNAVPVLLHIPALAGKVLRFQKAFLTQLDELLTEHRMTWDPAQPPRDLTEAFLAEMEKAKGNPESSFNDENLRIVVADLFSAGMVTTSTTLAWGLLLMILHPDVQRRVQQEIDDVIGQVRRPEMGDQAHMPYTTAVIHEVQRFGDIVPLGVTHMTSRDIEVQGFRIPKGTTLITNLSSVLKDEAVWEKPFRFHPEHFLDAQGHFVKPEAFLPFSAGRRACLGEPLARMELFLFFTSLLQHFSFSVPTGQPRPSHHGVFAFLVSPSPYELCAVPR
# Sequence of Cytochrome P450 3A4 (P08684 whole entry): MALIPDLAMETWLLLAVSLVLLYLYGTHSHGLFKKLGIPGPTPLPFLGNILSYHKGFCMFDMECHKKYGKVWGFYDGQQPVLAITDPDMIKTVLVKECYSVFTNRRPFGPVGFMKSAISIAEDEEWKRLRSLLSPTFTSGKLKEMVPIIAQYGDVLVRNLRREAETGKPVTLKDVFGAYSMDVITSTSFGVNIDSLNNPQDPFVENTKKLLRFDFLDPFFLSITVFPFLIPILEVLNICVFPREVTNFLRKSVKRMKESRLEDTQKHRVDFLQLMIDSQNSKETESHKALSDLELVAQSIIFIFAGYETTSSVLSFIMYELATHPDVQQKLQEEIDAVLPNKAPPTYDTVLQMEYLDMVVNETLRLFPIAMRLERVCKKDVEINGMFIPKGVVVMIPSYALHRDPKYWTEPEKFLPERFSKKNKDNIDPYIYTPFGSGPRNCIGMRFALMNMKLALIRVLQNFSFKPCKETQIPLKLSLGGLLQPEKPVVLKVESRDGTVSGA
# Sequence of hERG (KCNH2) (Q12809 whole entry): as the sequence (Q12809 whole entry) above
smiles,measurement,setting,value
Nc1ncnc(N2CCN(C(CN3CCC3)c3ccc(C(F)(F)F)cc3)CC2)c1-c1ccc(F)cc1 (configuration not stated),pIC50,[1],8.38
same,IC50,[2],> 1000 nM
same,pIC50,[3],5.82
Cn1cc(-c2ccc(F)c(C(F)(F)F)c2)nc1C1CCN(c2ncnc3[nH]ncc23)CC1 [LY-2584702],inhibition at 10 µM,[4],29%
Cn1cc(-c2ccc(F)c(C(F)(F)F)c2)nc1C1CCN(c2ncnc(N)c2-c2ccc(F)cc2)CC1,pIC50,[5],< 4.70
same,pIC50,[6],< 4.70
same,Papp A→B,[7],1.9 ×10⁻⁶ cm/s
same,pIC50,[1],8.40
same,IC50,[2],2200 nM
same,pIC50,[3],7.40
same,pIC50,[8],5.74
same,fraction unbound,[9],0.0008
same,fraction unbound,[10],0.0003
same,pIC50,[11],5.19
same,pIC50,[12],< 4.70
same,pIC50,[13],< 4.70
same,pIC50,[14],< 4.70
same,pIC50,[15],< 4.70
same,microsomal CLint,[16],23 µL/min/mg
same,microsomal CLint,[17],48 µL/min/mg
same,efflux ratio,[18],1.3
same,solubility thermodynamic,[19],< 1 µg/mL
same,solubility thermodynamic,[20],< 1 µg/mL
same,AUC,[21],557 ng·h/mL
same,AUC,[22],1350 ng·h/mL
same,Cmax,[23],72.1 ng/mL
same,Cmax,[24],597 ng/mL
same,half-life,[25],4.68 h
same,CL,[26],12.3 mL/min/kg
same,Vd,[27],2.16 L/kg
same,F,[28],41%
CN(C)CCn1cc(-c2ccc(F)c(C(F)(F)F)c2)nc1C1CCN(c2ncnc(N)c2C#N)CC1,pIC50,[1],8.74
same,IC50,[2],6.9 nM
same,pIC50,[3],4.26
same,pIC50,[8],5.80
Cn1cc(-c2ccc(F)c(C(F)(F)F)c2)nc1C1CCN(c2ncnc(N)c2-c2cncnc2)CC1,pIC50,[1],8.64
same,IC50,[2],880 nM
same,pIC50,[3],6.15
Nc1ncnc(N2CCC(c3nc(-c4ccc(F)c(C(F)(F)F)c4)cn3CCN3CCCCC3)CC2)c1-c1ccc(F)cc1,pIC50,[1],7.74
same,IC50,[2],350 nM
Nc1ncnc(N2CCC(c3nc(-c4ccc(F)c(C(F)(F)F)c4)cn3CCN3CCC3)CC2)c1C1CCC1,pIC50,[1],8.22
same,IC50,[2],7.3 nM
same,pIC50,[8],5.89
NCC(c1ccc(C(F)(F)F)cc1)N1CCN(c2ncnc(N)c2-c2ccc(F)cc2)CC1 (configuration not stated),pIC50,[1],8.66
same,IC50,[2],350 nM
same,pIC50,[3],6.40
Nc1ncnc(N2CCC(c3nc(-c4ccc(F)c(C(F)(F)F)c4)cn3CCN3CCCC3)CC2)c1-c1ccc(F)cc1,pIC50,[1],8.09
same,IC50,[2],140 nM
same,pIC50,[8],5.82
NCC(c1ccccc1)N1CCN(c2ncnc(N)c2-c2ccc(F)cc2)CC1 (configuration not stated),pIC50,[1],8.20
same,IC50,[2],> 1000 nM
same,pIC50,[3],5.59
CN(C)CCn1cc(-c2ccc(F)c(C(F)(F)F)c2)nc1C1CCN(c2ncnc(N)c2C2CC2)CC1,pIC50,[1],8.49
same,IC50,[2],4.8 nM
same,pIC50,[8],6.08
Cn1cc(-c2ccc(F)c(C(F)(F)F)c2)nc1C1CCN(c2ncnc(N)c2-c2cccc(F)c2)CC1,pIC50,[1],8.80
same,IC50,[2],> 1000 nM
same,pIC50,[3],6.40
CCc1c(N)ncnc1N1CCC(c2nc(-c3ccc(F)c(C(F)(F)F)c3)cn2CCN2CCC2)CC1,pIC50,[1],8.70
same,IC50,[2],4 nM
same,pIC50,[3],4.31
same,pIC50,[8],5.80
CC(C)c1c(N)ncnc1N1CCC(c2nc(-c3ccc(F)c(C(F)(F)F)c3)cn2CCN2CCC2)CC1,pIC50,[1],8.46
same,IC50,[2],6.6 nM
same,pIC50,[3],4.11
same,pIC50,[8],5.74
CN(C)CCn1cc(-c2ccc(F)c(C(F)(F)F)c2)nc1C1CCN(c2ncnc(N)c2-c2ccc(F)cc2)CC1,pIC50,[1],8.14
same,IC50,[2],230 nM
same,pIC50,[8],5.92
Cc1ncc(-c2c(N)ncnc2N2CCC(c3nc(-c4ccc(F)c(C(F)(F)F)c4)cn3C)CC2)s1,pIC50,[1],8.68
same,IC50,[2],850 nM
same,pIC50,[3],6.22
